Test results from the supplement of paper PMC11061612.

Key:
Test in all cases: combination Emax (second highest fraction inhibited in the dose matrix, 72 h); higher = more inhibition; extreme values may be limits of the assay
[1] = test system: RKO (Colorectal Carcinoma)
In short: (§1)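 Cell lines in DMEM/F12 or RPMI with 10% FBS were plated in 1536-well plates, held 24 hours at 37°C, 5% CO2, then given two-drug dose matrices for 72 hours (DMSO typically 0.2%). Viability was read by CellTiter-Glo 2.0 luminescence and scaled as inhibition from 0 (vehicle wells) to 1 (blank wells). Combination Emax is the second-highest inhibition in the matrix; Bliss excess is observed combination effect minus expected EA + EB − EA·EB, EA and EB being single-agent effects.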

[2] = test system: EN (Endometrial Carcinoma)
In short: as §1

[3] = test system: UMC-11 (Other Solid Carcinomas)
In short: as §1

[4] = test system: CAPAN-1 (Pancreatic Carcinoma)
In short: as §1

[5] = test system: HMV-II (Melanoma)
In short: as §1

[6] = test system: NCI-H747 (Colorectal Carcinoma)
In short: as §1

[7] = test system: Mewo (Melanoma)
In short: as §1

[8] = test system: RPMI-6666 (Non-Cancerous)
In short: as §1

| Compound | combination Emax [1] | combination Emax [2] | combination Emax [3] | combination Emax [4] | combination Emax [5] | combination Emax [6] | combination Emax [7] | combination Emax [8] |
| --- | --- | --- | --- | --- | --- | --- | --- | --- |
| CC1(C)CCC(CN2CCN(c3ccc(C(=O)NS(=O)(=O)c4ccc(NCC5CCOCC5)c([N+](=O)[O-])c4)c(Oc4cnc5[nH]ccc5c4)c3)CC2)=C(c2ccc(Cl)cc2)C1 [Venetoclax] + CCN(CCO)CCCOc1ccc2c(Nc3cc(CC(=O)Nc4cccc(F)c4)[nH]n3)ncnc2c1 [AZD2811] (first compound max 1 µM, 7x7, partner max 1 µM) | 0.27 | 0.399 | 0.91 | 0.206 | 0.263 | 0.246 | 0.434 | 0.991 |
| COc1nnc2ccc(N3CCC(c4ccc(OCCN5CCN(C)C(=O)[C@H]5C)cc4)CC3)nn12 [AZD5153] + C=CCn1c(=O)c2cnc(Nc3ccc(N4CCN(C)CC4)cc3)nc2n1-c1cccc(C(C)(C)O)n1 [AZD1775] (first compound max 1 µM, partner max 1 µM) | 0.841 | 0.525 | 0.9 | 0.549 | 0.709 | 0.782 | 0.645 | 0.828 |
| CC(=O)c1c(C)c2cnc(Nc3ccc(N4CCNCC4)cn3)nc2n(C2CCCC2)c1=O [Palbociclib] + CC1(C)CCC(CN2CCN(c3ccc(C(=O)NS(=O)(=O)c4ccc(NCC5CCOCC5)c([N+](=O)[O-])c4)c(Oc4cnc5[nH]ccc5c4)c3)CC2)=C(c2ccc(Cl)cc2)C1 [Venetoclax] (first compound max 10 µM, 7x7, partner max 1 µM) | 0.315 | 0.146 | 0.507 | 0.21 | 0.494 | 0.343 | 0.437 | 0.797 |
| NC1(C(=O)N[C@@H](CCO)c2ccc(Cl)cc2)CCN(c2ncnc3[nH]ccc23)CC1 [Capivasertib] + CC(C)n1c(=O)n(C)c2cnc3cc(F)c(-c4ccc(OCCCN5CCCCC5)nc4)cc3c21 [AZD1390] (first compound max 10 µM, 7x7, partner max 0.3 µM) | 0.524 | 0.574 | 0.201 | 0.044 | 0.358 | 0.523 | 0.365 | 0.715 |
| Cn1cnc2c(F)c(Nc3ccc(Br)cc3Cl)c(C(=O)NOCCO)cc21 [Selumetinib] + C[C@@H]1COCCN1C2=NC(=NC(=C2)C3(CC3)[S@](=N)(=O)C)C4=C5C=CNC5=NC=C4 [AZD6738] (first compound max 10 µM, 7x7, partner max 10 µM) | 0.945 | 0.558 | 0.603 | 0.585 | 0.735 | 0.776 | 0.466 | 0.804 |
| NC1(C(=O)N[C@@H](CCO)c2ccc(Cl)cc2)CCN(c2ncnc3[nH]ccc23)CC1 [Capivasertib] + C[C@@H]1COCCN1C2=NC(=NC(=C2)C3(CC3)[S@](=N)(=O)C)C4=C5C=CNC5=NC=C4 [AZD6738] (first compound max 10 µM, 7x7, partner max 10 µM) | 0.938 | 0.71 | 0.67 | 0.364 | 0.465 | 0.626 | 0.557 | 0.775 |
| COc1cc2ncnc(Nc3ccc(F)c(Cl)c3)c2cc1OCCCN1CCOCC1 [Gefitinib] + CC(C)n1c(=O)n(C)c2cnc3cc(F)c(-c4ccc(OCCCN5CCCCC5)nc4)cc3c21 [AZD1390] (first compound max 10 µM, 7x7, partner max 0.3 µM) | 0.0688 | 0.248 | 0.0797 | 0.253 | 0.411 | 0.369 | 0.0376 | 0.615 |
| COc1nnc2ccc(N3CCC(c4ccc(OCCN5CCN(C)C(=O)[C@H]5C)cc4)CC3)nn12 [AZD5153] + CCN(CCO)CCCOc1ccc2c(Nc3cc(CC(=O)Nc4cccc(F)c4)[nH]n3)ncnc2c1 [AZD2811] (first compound max 1 µM, 7x7, partner max 1 µM) | 0.812 | 0.454 | 0.843 | 0.353 | 0.588 | 0.734 | 0.593 | 0.634 |
| C[C@@H](c1ccc2nccn2c1)n1nnc2ncc(-c3cnn(C)c3)nc21 [Savolitinib] + CC1(C)CCC(CN2CCN(c3ccc(C(=O)NS(=O)(=O)c4ccc(NCC5CCOCC5)c([N+](=O)[O-])c4)c(Oc4cnc5[nH]ccc5c4)c3)CC2)=C(c2ccc(Cl)cc2)C1 [Venetoclax] (first compound max 1 µM, 7x7, partner max 1 µM) | 0.166 | 0.238 | 0.13 | 0.181 | 0.12 | 0.181 | 0.194 | 0.243 |
| Cc1nc(Nc2ncc(C(=O)Nc3c(C)cccc3Cl)s2)cc(N2CCN(CCO)CC2)n1 [Dasatinib] + CC(=O)Nc1cccc(-n2c(=O)n(C3CC3)c(=O)c3c(Nc4ccc(I)cc4F)n(C)c(=O)c(C)c32)c1 [Trametinib] (first compound max 2 µM, 7x7, partner max 1 µM) | 0.885 | 0.289 | 0.136 | 0.615 | 0.786 | 0.909 | 0.589 | 0.686 |
| CC1(C)CCC(CN2CCN(c3ccc(C(=O)NS(=O)(=O)c4ccc(NCC5CCOCC5)c([N+](=O)[O-])c4)c(Oc4cnc5[nH]ccc5c4)c3)CC2)=C(c2ccc(Cl)cc2)C1 [Venetoclax] + C[C@@H](Nc1cc(F)cc(F)c1)c1cc(C(=O)N(C)C)cc2c(=O)cc(N3CCOCC3)oc12 [AZD8186] (first compound max 1 µM, 7x7, partner max 3 µM) | 0.113 | 0.422 | 0.143 | 0.178 | 0.263 | 0.344 | 0.434 | 0.988 |
| CC1(C)CCC(CN2CCN(c3ccc(C(=O)NS(=O)(=O)c4ccc(NCC5CCOCC5)c([N+](=O)[O-])c4)c(Oc4cnc5[nH]ccc5c4)c3)CC2)=C(c2ccc(Cl)cc2)C1 [Venetoclax] + Cn1cnc2c(F)c(Nc3ccc(Br)cc3Cl)c(C(=O)NOCCO)cc21 [Selumetinib] (first compound max 1 µM, 7x7, partner max 3 µM) | 0.441 | 0.373 | 0.17 | 0.314 | 0.779 | 0.717 | 0.528 | 0.959 |
| CC(=O)Nc1cccc(-n2c(=O)n(C3CC3)c(=O)c3c(Nc4ccc(I)cc4F)n(C)c(=O)c(C)c32)c1 [Trametinib] + Cc1nc(-c2cn3c(n2)-c2ccc(-c4cnn(C(C)(C)C(N)=O)c4)cc2OCC3)n(C(C)C)n1 [Taselisib] (first compound max 1 µM, 7x7, partner max 10 µM) | 0.956 | 0.681 | 0.355 | 0.774 | 0.926 | 0.952 | 0.692 | 0.675 |
| CC1(C)CCC(CN2CCN(c3ccc(C(=O)NS(=O)(=O)c4ccc(NCC5CCOCC5)c([N+](=O)[O-])c4)c(Oc4cnc5[nH]ccc5c4)c3)CC2)=C(c2ccc(Cl)cc2)C1 [Venetoclax] + C1CN(CCC1(C(=O)N[C@@H](CCO)C2=CC=C(C=C2)Cl)N)C3=NC=NC4=C3C=CN4 [Capivasertib] (first compound max 1 µM, 7x7, partner max 3 µM) | 0.36 | 0.554 | 0.196 | 0.184 | 0.236 | 0.441 | 0.533 | 0.963 |
| COc1nnc2ccc(N3CCC(c4ccc(OCCN5CCN(C)C(=O)[C@H]5C)cc4)CC3)nn12 [AZD5153] + C[C@@H]1COCCN1C2=NC(=NC(=C2)C3(CC3)[S@](=N)(=O)C)C4=C5C=CNC5=NC=C4 [AZD6738] (first compound max 1 µM, 7x7, partner max 10 µM) | 0.923 | 0.584 | 0.912 | 0.54 | 0.712 | 0.809 | 0.604 | 0.834 |
| Cn1cnc2c(F)c(Nc3ccc(Br)cc3Cl)c(C(=O)NOCCO)cc21 [Selumetinib] + CC(C)n1c(=O)n(C)c2cnc3cc(F)c(-c4ccc(OCCCN5CCCCC5)nc4)cc3c21 [AZD1390] (first compound max 10 µM, 7x7, partner max 0.3 µM) | 0.606 | 0.261 | 0.0797 | 0.376 | 0.719 | 0.702 | 0.403 | 0.368 |
| COc1nnc2ccc(N3CCC(c4ccc(OCCN5CCN(C)C(=O)[C@H]5C)cc4)CC3)nn12 [AZD5153] + CC1(C)CCC(CN2CCN(c3ccc(C(=O)NS(=O)(=O)c4ccc(NCC5CCOCC5)c([N+](=O)[O-])c4)c(Oc4cnc5[nH]ccc5c4)c3)CC2)=C(c2ccc(Cl)cc2)C1 [Venetoclax] (first compound max 1 µM, 7x7, partner max 1 µM) | 0.757 | 0.289 | 0.769 | 0.335 | 0.524 | 0.702 | 0.563 | 0.764 |
| CC1(C)CCC(CN2CCN(c3ccc(C(=O)NS(=O)(=O)c4ccc(NCC5CCOCC5)c([N+](=O)[O-])c4)c(Oc4cnc5[nH]ccc5c4)c3)CC2)=C(c2ccc(Cl)cc2)C1 [Venetoclax] + C[C@@H]1COCCN1C2=NC(=NC(=C2)C3(CC3)[S@](=N)(=O)C)C4=C5C=CNC5=NC=C4 [AZD6738] (first compound max 1 µM, 7x7, partner max 10 µM) | 0.869 | 0.64 | 0.619 | 0.416 | 0.464 | 0.387 | 0.556 | 0.971 |
| NC1(C(=O)N[C@@H](CCO)c2ccc(Cl)cc2)CCN(c2ncnc3[nH]ccc23)CC1 [Capivasertib] + Cn1cnc2c(F)c(Nc3ccc(Br)cc3Cl)c(C(=O)NOCCO)cc21 [Selumetinib] (first compound max 10 µM, 7x7, partner max 10 µM) | 0.876 | 0.646 | 0.279 | 0.476 | 0.838 | 0.909 | 0.589 | 0.737 |
| CC1(C)CCC(CN2CCN(c3ccc(C(=O)NS(=O)(=O)c4ccc(NCC5CCOCC5)c([N+](=O)[O-])c4)c(Oc4cnc5[nH]ccc5c4)c3)CC2)=C(c2ccc(Cl)cc2)C1 [Venetoclax] + CN(C)CCCOc1ccc(-c2ccc3ncc4c(c3c2)n(C2CCOCC2)c(=O)n4C)cn1 [AZD0156] (first compound max 1 µM, 7x7, partner max 1 µM) | 0.381 | 0.426 | 0.269 | 0.184 | 0.289 | 0.305 | 0.547 | 0.976 |
